Data published in patent US5242938A, “Derivatives of virginiamycin M1” (Merck & Co., Inc., priority 1992, dated 1993).
pIC50: −log10 of the molar value. Converted amounts (≈) assume the structure as drawn. Like-named read-outs stand apart in the source and are kept apart here.

Assays:
[1] = test system: Streptococcus faecium (Mb 2820); assay: Agar diffusion disc assay, Str 2820; assay type: cell-based; parameters: Inhibition zone diameter, Str 2820: dose or concentration left out as unconfirmed
Method: (§1) Cultures employed in evaluating antimicrobial activity included plant pathogens, human and animal opportunistic pathogens and selected laboratory strains having specific-antibiotic sensitivities or chromosomal or R-plasmid-mediated resistances. […] The agar diffusion MIC's were determined using the method described by Barry in Anitbiotics in Laboratory Medicine, 2nd Ed., Ed. V. Lorian, pp. 1-63, William & Wilkins, Baltimore, 1986. Each test compound was dissolved in methanol to a concentration of 1 mg/ml. Serial dilutions of these compounds were also made to determine an agar diffusion MIC. 20 μl of each dilution was pipetted on to 6 mm paper discs, air dried and placed onto the surface of an agar plate seeded with the appropriate bacteria (~10^6 cfu). Seeded agar plates were incubated overnight (~18 hours) at 25° C. Zone sizes were measured to the nearest mm. Each compound was tested in triplicate and the results shown represent the mean.

[2] = molecular target: T1, CCK-A (rat pancreas) (Rattus norvegicus, UniProt P30551); assay: [125I]BHCCK-8 radioligand binding, rat pancreatic preparation; conditions: read-out: CCK binding inhibition - IC50, [125I]BHCCK
T1 construct: from tissue; host or cells: rat pancreas
T1 sequence (P30551 1-444): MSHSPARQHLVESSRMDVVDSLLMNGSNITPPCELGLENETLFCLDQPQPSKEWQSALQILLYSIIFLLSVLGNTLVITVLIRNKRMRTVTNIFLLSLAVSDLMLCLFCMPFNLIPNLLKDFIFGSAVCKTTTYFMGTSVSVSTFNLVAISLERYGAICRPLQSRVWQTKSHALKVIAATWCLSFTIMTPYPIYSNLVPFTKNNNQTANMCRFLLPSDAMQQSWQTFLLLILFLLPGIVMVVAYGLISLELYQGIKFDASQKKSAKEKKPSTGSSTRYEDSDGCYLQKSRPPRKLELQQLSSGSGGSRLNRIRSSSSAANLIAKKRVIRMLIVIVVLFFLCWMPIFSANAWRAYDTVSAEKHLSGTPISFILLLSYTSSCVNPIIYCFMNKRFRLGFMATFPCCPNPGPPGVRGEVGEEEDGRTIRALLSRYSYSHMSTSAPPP
Method: (§2) The resulting supernatant was re-spun at 20,000×g for 20 minutes. […] Incubations were for 40 minutes at 4° C. and were terminated by filtration and washing with ice cold 100 mM saline. […] Incubations were for 30 minutes at room temperature and were terminated by filtration over GF/C filters and washing with 100 mM NaCl.

[3] = test system: Salmonella gallinarum (Mb 1287); assay: Agar diffusion disc assay, Salm 1287; assay type: cell-based
Method: as §1

[4] = test system: En terobacter aergenes (Mb 835); assay: Agar diffusion disc assay, Ent 835; assay type: cell-based
Method: as §1

[5] = molecular target: T2, CCK-B (guinea pig cortex) (Cavia porcellus, UniProt H0VZC5); assay: [3H]L-365,260 CCK-B selective antagonist ligand binding, brain membranes; conditions: for pIC50: read-out: CCK binding inhibition - IC50, [3H]L-365,260
T2 construct: guinea pig cortical preparations; from tissue; host or cells: guinea pig brain cortex membranes
T2 sequence (H0VZC5 1-426): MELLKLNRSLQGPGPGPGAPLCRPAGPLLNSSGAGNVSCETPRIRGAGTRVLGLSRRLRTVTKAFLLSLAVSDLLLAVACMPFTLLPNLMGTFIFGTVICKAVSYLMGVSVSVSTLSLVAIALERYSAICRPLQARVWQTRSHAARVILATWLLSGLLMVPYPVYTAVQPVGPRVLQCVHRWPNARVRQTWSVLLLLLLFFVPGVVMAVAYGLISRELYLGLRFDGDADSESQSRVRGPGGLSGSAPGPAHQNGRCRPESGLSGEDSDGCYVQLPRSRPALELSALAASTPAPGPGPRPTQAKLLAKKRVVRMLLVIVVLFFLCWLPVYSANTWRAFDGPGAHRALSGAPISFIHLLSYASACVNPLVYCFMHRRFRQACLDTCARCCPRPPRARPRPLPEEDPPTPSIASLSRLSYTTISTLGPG
Method: as §2

[6] = test system: Bacillus sp. (Mb 633); assay: Agar diffusion disc assay, Baci 633; assay type: cell-based; conditions: @ 20 g/disc
Method: as §1

[7] = test system: Staphylococcus aureus (Mb 2983); assay: Agar diffusion disc assay, Sta 2983; assay type: cell-based
Method: as §1

[8] = molecular target: T2, CCK-B (guinea pig cortex); assay: [125I]BHCCK-8 radioligand binding, guinea pig cortical preparation; conditions: read-out: CCK binding inhibition - IC50, [125I]BHCCK
Method: as §2

[9] = test system: Corynebacterium pseudodiphtheriticum (Mb 261, ATCC 9742); assay: Agar diffusion disc assay, Cory 261; assay type: cell-based; parameters: Inhibition zone diameter, Cory 261: dose or concentration left out as unconfirmed
Method: as §1

[10] = test system: Escherichia coli (Mb 1418); assay: Agar diffusion disc assay, Coli 1418; assay type: cell-based; conditions: @ 20 g/disc
Method: as §1

[11] = test system: Streptococcus agalactiae (Mb 2875); assay: Agar diffusion disc assay, Str 2875; assay type: cell-based
Method: as §1

[12] = test system: Staphylococcus aureus (Mb 108, ATCC 6538P); assay: Agar diffusion disc assay, Sta 108; assay type: cell-based
Method: as §1

[13] = test system: Micrococcus luteus (Mb 1101, ATCC 9341); assay: Agar diffusion disc assay, Micr 1101; assay type: cell-based; conditions: for MIC: read-out: Agar Diffusion MIC versus Micrococcus luteus
Method: as §1

[14] = molecular target: T1, CCK-A (rat pancreas); assay: [3H]L-364,718 CCK-A selective antagonist ligand binding, pancreas; conditions: read-out: CCK binding inhibition - IC50, [3H]L-364,718
Method: as §2

[15] = test system: Pseudomonas stutzeri (Mb 1231, ATCC 11607); assay: Agar diffusion disc assay, Pseu 1231; assay type: cell-based; conditions: @ 20 g/disc
Method: as §1

[16] = test system: Bacillus subtilis (Mb 964, ATCC 6633); assay: Agar diffusion disc assay, Subt 964; assay type: cell-based
Method: as §1

Structure (SMILES): CC1=C\[C@@H](O)CC(O)Cc2nc(co2)C(=O)N2CCC=C2C(=O)O[C@H](C(C)C)[C@H](C)/C=C/C(=O)NC\C=C\1 (single isomer, unassigned) [Example 14A]
- zone of inhibition at 20 µg/disc ([1]; Enterococcus faecium, 18 h, read-out: Inhibition zone diameter, Str 2820, @ 20 g/disc): 16 mm
- pIC50 [2]: < 5.52
- zone of inhibition at 20 µg/disc ([3]; Salmonella enterica, GALLINARUM, 18 h, read-out: Inhibition zone diameter, Salm 1287): 0 mm
- zone of inhibition at 20 µg/disc ([4]; 18 h, read-out: Inhibition zone diameter, Ent 835): 0 mm
- A.R. = agonist ratio = IC50([3H]L365,260)/IC50([125I]CCK) [5]: 0.1
- pIC50 [5]: 6.85
- Inhibition zone diameter, Baci 633 [6]: 9 mm
- zone of inhibition at 20 µg/disc ([7]; Staphylococcus aureus, 18 h, read-out: Inhibition zone diameter, Sta 2983, @ 20 g/disc): 22 mm
- pIC50 [8]: 5.68
- zone of inhibition at 20 µg/disc ([9]; Corynebacterium pseudodiphtheriticum, ATCC9742, 18 h, read-out: Inhibition zone diameter, Cory 261, @ 20 g/disc): 30 mm
- Inhibition zone diameter, Coli 1418 [10]: 8 mm
- zone of inhibition at 20 µg/disc ([11]; Streptococcus agalactiae, 18 h, read-out: Inhibition zone diameter, Str 2875, @ 20 g/disc): 30 mm
- zone of inhibition at 20 µg/disc ([12]; Staphylococcus aureus, ATCC6538P, 18 h, read-out: Inhibition zone diameter, Sta 108, @ 20 g/disc): 27 mm
- zone of inhibition at 20 µg/disc ([13]; Micrococcus luteus, ATCC9341, 18 h, read-out: Inhibition zone diameter, Micr 1101, @ 20 g/disc): 35 mm
- zone of inhibition at 1.25 µg/disc ([13]; Micrococcus luteus, ATCC9341, 18 h, read-out: Mean of triplicate zone size versus Micrococcus luteus, 1.25 μg/disc, 25° C., ~18 hours): 25 mm
- zone of inhibition at 2.5 µg/disc ([13]; Micrococcus luteus, ATCC9341, 18 h, read-out: Mean of triplicate zone size versus Micrococcus luteus, 2.50 μg/disc, 25° C., ~18 hours): 27 mm
- zone of inhibition at 5 µg/disc ([13]; Micrococcus luteus, ATCC9341, 18 h, read-out: Mean of triplicate zone size versus Micrococcus luteus, 5.00 μg/disc, 25° C., ~18 hours): 29 mm
- zone of inhibition at 20 µg/disc ([13]; Micrococcus luteus, ATCC9341, 18 h, read-out: Mean of triplicate zone size versus Micrococcus luteus, 20.0 μg/disc, 25° C., ~18 hours): 33 mm
- MIC [13]: 0.08 µM (≈ 0.0422 µg/mL)
- pIC50 [14]: < 5.52
- Inhibition zone diameter, Pseu 1231 [15]: 15 mm
- zone of inhibition at 20 µg/disc ([16]; Bacillus subtilis, ATCC6633, 18 h, read-out: Inhibition zone diameter, Subt 964): 0 mm

Structure (SMILES): CC1=C\[C@@H](O)CC(O)Cc2nc(co2)C(=O)N2CCC=C2C(=O)O[C@H](C(C)C)[C@H](C)/C=C/C(=O)NC\C=C\1 (single isomer, unassigned) [Example 14B]
- Inhibition zone diameter, Str 2820 [1]: 15 mm
- pIC50 [2]: < 5.52
- Inhibition zone diameter, Salm 1287 ([3]; @ 20 g/disc): 0 mm
- Inhibition zone diameter, Ent 835 ([4]; @ 20 g/disc): 0 mm
- A.R. = agonist ratio = IC50([3H]L365,260)/IC50([125I]CCK) [5]: 1
- pIC50 [5]: 6.28
- Inhibition zone diameter, Baci 633 [6]: 0 mm
- Inhibition zone diameter, Sta 2983 ([7]; @ 20 g/disc): 11 mm
- pIC50 [8]: 6.40
- Inhibition zone diameter, Cory 261 [9]: 26 mm
- Inhibition zone diameter, Coli 1418 [10]: 0 mm
- Inhibition zone diameter, Str 2875 ([11]; @ 20 µg/disc): 18 mm
- Inhibition zone diameter, Sta 108 ([12]; @ 20 g/disc): 22 mm
- Mean of triplicate zone size versus Micrococcus luteus ([13]; 1.25 μg/disc, 25° C., ~18 hours): 22 mm
- Mean of triplicate zone size versus Micrococcus luteus ([13]; 2.50 μg/disc, 25° C., ~18 hours): 25 mm
- Mean of triplicate zone size versus Micrococcus luteus ([13]; 5.00 μg/disc, 25° C., ~18 hours): 28 mm
- Mean of triplicate zone size versus Micrococcus luteus ([13]; 10.0 μg/disc, 25° C., ~18 hours): 30 mm
- Mean of triplicate zone size versus Micrococcus luteus ([13]; 20.0 μg/disc, 25° C., ~18 hours): 32 mm
- Inhibition zone diameter, Micr 1101 ([13]; @ 20 µg/disc): 35 mm
- MIC [13]: 0.24 µM (≈ 0.127 µg/mL)
- pIC50 [14]: < 5.52
- Inhibition zone diameter, Pseu 1231 [15]: 0 mm
- Inhibition zone diameter, Subt 964 ([16]; @ 20 g/disc): 0 mm
